From patent publication US20230118142A1, “AGENTS FOR USE IN THE TREATMENT OF TISSUE DAMAGE” (UCL BUSINESS LTD, priority 2020, published 2023)

Legend:
CRP [1] = biological target: T1, CRP (Homo sapiens, UniProt P02741); experiment: In vivo clearance of preformed CRP/ligand complexes in mice; parameters: from tissue; settings: complexes formed in vitro, injected intravenously
T1 sequence (P02741 19-224): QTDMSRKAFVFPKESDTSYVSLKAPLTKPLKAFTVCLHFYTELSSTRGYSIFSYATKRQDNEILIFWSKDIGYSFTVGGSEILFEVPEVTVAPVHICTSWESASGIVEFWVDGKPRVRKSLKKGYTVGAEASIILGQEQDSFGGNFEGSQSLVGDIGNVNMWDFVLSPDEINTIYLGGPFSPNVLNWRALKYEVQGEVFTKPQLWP
Protocol: (i) CRP at 1 mg/ml in azide-free TC buffer (containing, in some experiments, ˜10^6 cpm/ml of ^125I-CRP) was incubated with a 5-fold molar excess of ligand. A control (ligand-free) sample was also prepared. Cross linking of CRP was confirmed by SEC in TC buffer of a small sample of complex.
(ii) Two groups of eight wild-type C57BL/6 mice (male; 23-27 weeks old) were used.
The complex or control (200 μl, 200 μg CRP) was injected into the tail vein of each mouse. A single timed collection of blood was taken from the tail vain of each mouse; a second terminal sample was also collected. This yielded 4 samples each at 30, 60, 120 and 180 min for control and treated groups.
(iii) Blood samples were weighed and CRP measured in the Roche assay and, in some cases by electroimmunoassay (4, 13). ^125I-CRP was measured by gamma counting (Perkin Elmer Wizard; protocol #1).
Complexes were prepared in vitro using ^125I-labelled CRP and an excess of ligand, and the mixture was then injected intravenously into mice. Clearance of CRP was monitored by counting of the ^125I-CRP tracer and stable CRP-ligand complexes were detected by lack of CRP detection in the Roche assay of the plasma samples. The formation of CRP/ligand complexes was confirmed by size exclusion chromatography before use in each in vivo experiment.

CRP [2] = biological target: T1, CRP; experiment: Stability of pre-formed CRP/ligand complexes in vitro (mouse plasma, whole blood, shear forces, dialysis); parameters: from tissue
Protocol: Pre-formed complexes of CRP/Pk-023 (with 5-fold molar excess of ligand over CRP pentamer), or CRP alone, were co-incubated, unstirred, in TC buffer (control), fresh mouse heparinised plasma or fresh heparinised whole mouse blood at 37° C. for up to 3 hours. CRP concentrations in plasma were then measured by Roche immunoassay. […] On addition of EDTA to dissociate CRP ligand binding, Roche CRP concentrations in all CRP/Pk-023 samples recovered to ˜70% of control values showing that the protein was still present and immunoreactive.
To determine whether shear forces might have an effect on stability, pre-formed CRP/Pk-023 complexes prepared with either a 2.5- or 5-fold molar excess of ligand were added to heparinised mouse plasma and stirred rapidly at room temperature for 3 h.
CRP/Pk-023 complexes formed at 5-fold ligand excess were stable during exhaustive dialysis against TC buffer for up to 96 h at room temperature, as shown by the Roche CRP assay values. After 30 h, ˜8% of the complex had dissociated, with a further 2.5% dissociation at 96 h. Similarly, CRP/Pk-023 complexes pre-formed in serum were stable during dialysis against TC buffer for 24 h at room temperature with shear forces produced by a magnetic stir bar inserted into the dialysis tubing. ^125I-CRP was included to correct for dilution account for any effects of dilution.

CRP [3] = biological target: T1, CRP; experiment: Roche immunoturbidimetric assay: pure CRP; format: binding; parameters: The final concentrations were 0.73 μM native pentameric CRP; from tissue; settings: pure CRP in TC buffer; read-out: IC50 (μM), SD; inhibition of Roche CRP immunoreactivity
Method in brief: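 Purified human CRP (final 0.73 μM pentamer) incubated 1 h at 37° C with ligand (final 625-0.03 μM) in TC buffer. Remaining CRP quantified by Roche microparticle-enhanced immunoturbidimetric assay, one antibody recognising the ligand-binding B-face, as % of buffer control; EC50 from 4-parameter logistic fit.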

Structure (SMILES): O=P(O)(OCCCCCCCCOP(=O)(O)O[C@@H]1CN2CCC1CC2)O[C@@H]1CN2CCC1CC2 [Pk-023, [(3S)-1-azabicyclo[2.2.2]octan-3-yloxy]({[8-({[(3S)-1-azabicyclo[2.2.2]octan-3-yloxy](hydroxy)phosphoryl}oxy)octyl]oxy})phosphinic acid]
- Time Roche CRP value suppressed (persistence of preformed complex in circulation) (CRP [1]): suppressed at 15 min but was had returned to control value at 60 min
- Stability of complex to shear forces (Roche CRP reactivity) (CRP [2]; 2.5- or 5-fold ligand excess, heparinised mouse plasma, stirred rapidly, room temperature, 3 h): stable throughout the experiment
- Complex dissociated during dialysis against TC buffer (CRP [2]; 5-fold ligand excess, room temperature, after 30 h): ~8%
- Stability of pre-formed CRP/ligand complex (Roche CRP) (CRP [2]; 5-fold ligand excess, TC buffer, mouse heparinised plasma or whole mouse blood, 37° C., up to 3 hours): stable throughout the experiment
- Roche CRP concentration recovered on addition of EDTA (CRP [2]; after incubation in mouse plasma/whole blood): ~70 % of control values
- Further dissociation of complex during dialysis (CRP [2]; at 96 h): 2.5%
- Stability of complexes pre-formed in serum during dialysis (CRP [2]; dialysis against TC buffer 24 h, room temperature, with shear forces): stable
- IC50 (CRP [3]): 0.6 µM
